How the values were obtained:
Jurkat cells = assay: Calcium response of trapped Fluo-3-loaded Jurkat cells to ionomycin on chip (cell trap arrays with concentration gradient generator); format: cell-based, human
Method: Jurkat E6-1 human acute T cell lymphoma cells (ATCC) were cultured in RPMI 1640 medium with L-glutamine (Sigma-Aldrich, St. Louis, Mo.) with 10 mM HEPES, 1 mM sodium pyruvate, 1×MEM nonessential amino acids, and 100 units mL^−1 penicillin streptomycin (Cellgro), supplemented with 10% certified heat inactivated fetal bovine serum (Sigma-Aldrich, St. Louis, Mo.), at 37° C. in a humidified 5% CO2 incubator. For nuclei visualisation, Jurkat cells were incubated with Hoechst 33258, at a final concentration of 1 μg mL^−1, at 37° C. for 20 minutes.
Cells were checked for viability using Live/Dead stain (Invitrogen) following the manufacturer's protocol. For high resolution microscopy, 10^6 cells were fixed in a 5% formalin solution (Sigma-Aldrich, St. Louis, Mo.) for 15 minutes at 37° C., washed three times with cold PBS, and resuspended in 100 μL of ice cold 90% methanol. Immunostaining was performed on fixed cells using […] for DNA staining, mouse α-calnexin (Abcam) for ER staining, and rabbit α-profilin-1 (Cell Signaling), as a cytoplasmic localized protein. Incubation with the primary antibody for one hour at room temperature was followed by three wash steps with a solution of 2% BSA in PBS and incubation for 40 minutes at room temperature with the following secondary antibodies: Alexa 488 α-mouse (Invitrogen) and goat α-rabbit TRITC (Southern Biotech). To monitor calcium signaling, Jurkat cells were incubated with 5 μM Fluo-3 (Invitrogen) for 20 minutes at 37° C., washed with cold PBS, and loaded into the cell traps. Trapped cells were stimulated with ionomycin (Sigma, St. Louis, Mo.) at various concentrations to release intracellular calcium.
Before each experiment, the microfluidic devices were primed using a solution of 2% BSA in PBS to remove any air bubbles and limit undesirable cell adhesion to the wall. A pressure difference of 3.5 kPa (5.5 kPa for devices with upstream serial-dilution gradient generator) created by gravity was used to drive the flow, resulting to an average flow rate of ˜2 μL h^−1. Cell loading was obtained by pipetting 2 μL of 5×10^6 cell mL^−1 of cell suspension on the chip positioned on the microscope stage. Further experiments (staining, stimulation) were performed by adding 5 μL of 4× chemicals in the inlet hole and flowing over the trapped cells for the desired time. All experiments were performed in a microcontrolled environment (temperature set at 37° C. in a humidified 5% CO2 environment).
A […] (SIMCA-P, Umetrics) was run on a known dataset of objects to determine the two most informative predictors of the number of cells contained in an object. The perimeter and the extent (ratio of pixels in the object to pixels in the total bounding box) were found as being the most informative. To quantify single cell trapping efficiency, the distribution of objects in the perimeter-extent space was fitted to a 2-component Gaussian mixture model for each chamber trap array. The maximum likelihood parameters from each of the two subpopulations were retrieved and represented respectively the percentage of single cell objects and multiple cell objects. Single cell response intensities were obtained by tracking the mean intensity of each object considered as a single cell in the overlaid mask and image over time.
The present trap arrays can also be easily integrated with upstream microfluidic components capable of multiplexing experiments, where cells can be exposed to different extracellular conditions on a single chip. […] After loading cells containing Fluo-3, more than 1,000 individual cells were monitored for an hour after the addition of different concentrations of the calcium ionophore ionomycin. Ionomycin increases intracellular calcium via mobilization of both extracellular and intracellular calcium stores in T cells. As expected, increased concentration of stimulus lead to increased average intracellular calcium concentration (FIG. 17). […]

[1] = tested on: human embryonic kidney 293 cells; conditions: clonal HEK 293 cells challenged with caffeine; cited from earlier work

SMILES	% Responding Cells (Jurkat cells; ionomycin 0.08 μM, chamber 8, 250 tracked cells)	% Responding Cells (Jurkat cells; ionomycin 0.2 μM, chamber 7, 306 tracked cells)	% Responding Cells (Jurkat cells; ionomycin 0.5 μM, chamber 6, 273 tracked cells)	% Responding Cells (Jurkat cells; ionomycin 0.8 μM, chamber 5, 287 tracked cells)	% Responding Cells (Jurkat cells; ionomycin 1.4 μM, chamber 4, 322 tracked cells)	% Responding Cells (Jurkat cells; ionomycin 1.8 μM, chamber 3, 263 tracked cells)	% Responding Cells (Jurkat cells; ionomycin 2.2 μM, chamber 2, 328 tracked cells)	% Responding Cells (Jurkat cells; ionomycin 2.5 μM, chamber 1, 342 tracked cells)	cells responding with an elevation in intracellular calcium [1]
C[C@H](CCC(=O)O)C[C@H](C)C[C@H](C)C(=O)/C=C(\O)[C@H](C)C[C@H](C)C/C=C/[C@@H](C)[C@@H](O)[C@@H](C)[C@@H](O)C[C@@H]1CC[C@@](C)([C@H]2CC[C@@](C)([C@@H](C)O)O2)O1 [ionomycin]	4%	17%	19.1%	25.4%	31.1%	31.9%	33.2%	44%	
Cn1c(=O)c2c(ncn2C)n(C)c1=O [caffeine]									40%

— patent US9957472B2, “Deterministic high-density single-cell trap array” (Georgia Tech Research Corporation, priority 2011, dated 2018)
